Measurements taken from patent US10722501B2 (BAYER AKTIENGESELLSCHAFT, priority 2016, dated 2020).
pIC50: −log10 of the molar value.

Biological target: T1, recombinant full-length human prolyl endopeptidase (PREP) (Homo sapiens, UniProt P48147)
T1 construct: To recombinant full-length human prolyl endopeptidase (PREP, R&D-Systems, 4308-SE); purchased R&D-Systems 4308-SE
T1 sequence (P48147 1-710): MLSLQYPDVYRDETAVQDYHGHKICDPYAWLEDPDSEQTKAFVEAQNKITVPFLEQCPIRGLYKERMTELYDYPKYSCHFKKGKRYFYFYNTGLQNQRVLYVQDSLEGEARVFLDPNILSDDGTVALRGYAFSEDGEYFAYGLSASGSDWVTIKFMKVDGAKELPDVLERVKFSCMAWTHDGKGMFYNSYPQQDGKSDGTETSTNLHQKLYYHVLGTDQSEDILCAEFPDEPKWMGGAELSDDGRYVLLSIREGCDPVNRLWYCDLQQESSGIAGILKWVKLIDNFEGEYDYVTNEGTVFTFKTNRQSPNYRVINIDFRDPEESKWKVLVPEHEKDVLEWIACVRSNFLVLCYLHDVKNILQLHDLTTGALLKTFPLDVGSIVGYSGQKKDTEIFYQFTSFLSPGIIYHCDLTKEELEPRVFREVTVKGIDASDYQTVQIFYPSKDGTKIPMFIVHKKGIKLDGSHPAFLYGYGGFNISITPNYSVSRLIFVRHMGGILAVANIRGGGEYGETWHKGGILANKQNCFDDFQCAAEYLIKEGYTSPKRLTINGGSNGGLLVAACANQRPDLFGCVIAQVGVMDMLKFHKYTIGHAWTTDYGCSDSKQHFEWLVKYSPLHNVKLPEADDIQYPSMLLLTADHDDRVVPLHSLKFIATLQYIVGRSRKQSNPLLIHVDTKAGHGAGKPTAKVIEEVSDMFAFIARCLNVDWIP
Assay: Biochemical human prolyl endopeptidase (PREP) assay with fluorescently labelled substrate
Conditions: substrate Z-Gly-Pro-AMC 50 μM, 32° C., 60 min; some as mean values from multiple independent determinations
In short: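 Initial rates of fluorescence increase from 50 μM Z-Gly-Pro-AMC cleavage (ex 360/em 465 nm, 60 min, 32° C) give percent PREP activity versus no-compound control, and IC50 is interpolated. Enzyme used at 0.4 nM (final, example) in Tris pH 7.5 with EDTA, GSH, BSA and Brij-35; compounds span 1 nM to 30 μM.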
For O=C([C@@H]1CCCc2nn(Cc3ccc(F)cc3F)c(=O)n21)N1CC[C@H](F)C1 [Example 488, (5S)-2-(2,4-Difluorobenzyl)-5-{[(3S)-3-fluoropyrrolidin-1-yl]carbonyl}-5,6,7,8-tetrahydro[1,2,4]triazolo[4,3-a]pyridin-3(2H)-one], the pIC50 was 9.82. In the case of O=C([C@@H]1CCCc2nn(Cc3ccc(Cl)cn3)c(=O)n21)N1C[C@@H](F)[C@@H](F)C1 [Example 378, (5S)-2-[(5-Chloropyridin-2-yl)methyl]-5-{[(3R,4S)-3,4-difluoropyrrolidin-1-yl]carbonyl}-5,6,7,8-tetrahydro[1,2,4]triazolo[4,3-a]pyridin-3(2H)-one], the pIC50 was 8.59. In the case of O=C([C@@H]1CCCc2nn(Cc3ccc(C(F)(F)F)c(F)c3)c(=O)n21)N1CC(F)C1 [Example 473, (5S)-5-[(3-Fluoroazetidin-1-yl)carbonyl]-2-[3-fluoro-4-(trifluoromethyl)benzyl]-5,6,7,8-tetrahydro[1,2,4]triazolo[4,3-a]pyridin-3(2H)-one], the pIC50 was 9.77. Work on Cc1ccc(Cn2nc3n(c2=O)C(C(=O)N2CC(OC(F)F)C2)CCC3)cc1 (racemic) [Example 123, (5RS)-5-{[3-(Difluoromethoxy)azetidin-1-yl]carbonyl}-2-(4-methylbenzyl)-5,6,7,8-tetrahydro[1,2,4]triazolo[4,3-a]pyridin-3(2H)-one] yielded a pIC50 of 7.92. O=C([C@@H]1CCCc2nn(Cc3cc(C(F)(F)F)c(Cl)cn3)c(=O)n21)N1CC[C@H](F)C1 [Example 376, (5S)-2-{[5-Chloro-4-(trifluoromethyl)pyridin-2-yl]methyl}-5-{[(3S)-3-fluoropyrrolidin-1-yl]carbonyl}-5,6,7,8-tetrahydro[1,2,4]triazolo[4,3-a]pyridin-3(2H)-one] gave a pIC50 of 9.39. Work on Cc1ccc(Cn2nc3n(c2=O)[C@H](C(=O)N2CCC[C@H]2C(=O)CO)CCC3)cc1 [Example 190, (5S)-5-{[(2S)-2-Glycoloylpyrrolidin-1-yl]carbonyl}-2-(4-methylbenzyl)-5,6,7,8-tetrahydro[1,2,4]triazolo[4,3-a]pyridin-3(2H)-one] yielded a pIC50 of 9.89. In the case of O=C([C@@H]1CCCc2nn(Cc3ccnc(C(F)(F)F)c3F)c(=O)n21)N1CCC2CC21 (mixture of isomers) [Example 205, (5S)-5-[(1 RS,5SR)-2-Azabicyclo[3.1.0]hex-2-ylcarbonyl]-2-{[3-fluoro-2-(trifluoromethyl)pyridin-4-yl]methyl}-5,6,7,8-tetrahydro[1,2,4]triazolo[4,3-a]pyridin-3(2H)-one], the pIC50 was 8.00. For O=C([C@@H]1CCCc2nn(Cc3ccc(F)cc3Cl)c(=O)n21)N1CC(F)C1 [Example 476, (5S)-2-(2-Chloro-4-fluorobenzyl)-5-[(3-fluoroazetidin-1-yl)carbonyl]-5,6,7,8-tetrahydro[1,2,4]triazolo[4,3-a]pyridin-3(2H)-one], the pIC50 was 9.11. For COc1ncc(Cn2nc3n(c2=O)[C@H](C(=O)N2CCC(F)(F)C2)CCC3)cc1Cl [Example 443, (5S)-2-[(5-Chloro-6-methoxypyridin-3-yl)methyl]-5-[(3,3-difluoropyrrolidin-1-yl)carbonyl]-5,6,7,8-tetrahydro[1,2,4]triazolo[4,3-a]pyridin-3(2H)-one], the pIC50 was 9.21. Work on O=C([C@@H]1CCCc2nn(Cc3cccc(Cl)n3)c(=O)n21)N1CCC(F)(F)C1 [Example 383, (5S)-2-[(6-Chloropyridin-2-yl)methyl]-5-[(3,3-difluoropyrrolidin-1-yl)carbonyl]-5,6,7,8-tetrahydro[1,2,4]triazolo[4,3-a]pyridin-3(2H)-one] yielded a pIC50 of 8.07. In the case of O=C(C1CCCc2nn(Cc3ccc(Cl)cn3)c(=O)n21)N1CCCC1 (racemic) [Example 33, (5RS)-2-[(5-Chloropyridin-2-yl)methyl]-5-(pyrrolidin-1-ylcarbonyl)-5,6,7,8-tetrahydro[1,2,4]triazolo[4,3-a]pyridin-3(2H)-one], the pIC50 was 8.11. For O=C([C@@H]1CCCc2nn(Cc3ncc(C(F)(F)F)cc3Cl)c(=O)n21)N1CCC(F)(F)C1 [Example 404, (5S)-2-{[3-Chloro-5-(trifluoromethyl)pyridin-2-yl]methyl}-5-[(3,3-difluoropyrrolidin-1-yl)carbonyl]-5,6,7,8-tetrahydro[1,2,4]triazolo[4,3-a]pyridin-3(2H)-one], the pIC50 was 8.63. Work on O=C([C@@H]1CCCc2nn(Cc3ccc(C(F)F)nc3)c(=O)n21)N1CC(F)C1 [Example 209, (5S)-2-{[6-(Difluoromethyl)pyridin-3-yl]methyl}-5-[(3-fluoroazetidin-1-yl)carbonyl]-5,6,7,8-tetrahydro[1,2,4]triazolo[4,3-a]pyridin-3(2H)-one] yielded a pIC50 of 8.26. Molecule Cc1noc(-c2ccc(Cn3nc4n(c3=O)C(C(=O)N3CCCC3)CCC4)cc2)n1 (racemic) [Example 9, (5RS)-2-[4-(3-Methyl-1,2,4-oxadiazol-5-yl)benzyl]-5-(pyrrolidin-1-ylcarbonyl)-5,6,7,8-tetrahydro[1,2,4]triazolo[4,3-a]pyridin-3(2H)-one] has a pIC50 of 7.41. Molecule Cc1nc(C(F)(F)F)c(Cn2nc3n(c2=O)C(C(=O)N2CCCC2)CCC3)s1 (racemic) [Example 77, (5RS)-2-{[2-Methyl-4-(trifluoromethyl)-1,3-thiazol-5-yl]methyl}-5-(pyrrolidin-1-ylcarbonyl)-5,6,7,8-tetrahydro[1,2,4]triazolo[4,3-a]pyridin-3(2H)-one] has a pIC50 of 8.32. In the case of O=C([C@@H]1CCCc2nn(Cc3ccc(F)c(Cl)c3)c(=O)n21)N1CC(F)C1 [Example 457, (5S)-2-(3-Chloro-4-fluorobenzyl)-5-[(3-fluoroazetidin-1-yl)carbonyl]-5,6,7,8-tetrahydro[1,2,4]triazolo[4,3-a]pyridin-3(2H)-one], the pIC50 was 8.88. In the case of Cc1ccc(C(F)(F)Cn2nc3n(c2=O)[C@H](C(=O)N2CC[C@H](F)C2)CCC3)cc1 [Example 517, (5S)-2-[2,2-Difluoro-2-(4-methylphenyl)ethyl]-5-{[(3S)-3-fluoropyrrolidin-1-yl]carbonyl}-5,6,7,8-tetrahydro[1,2,4]triazolo[4,3-a]pyridin-3(2H)-one], the pIC50 was 9.02. Molecule O=C([C@@H]1CCCc2nn(Cc3ccc(Cl)nc3)c(=O)n21)N1CCC(F)(F)C1 [Example 423, (5S)-2-[(6-Chloropyridin-3-yl)methyl]-5-[(3,3-difluoropyrrolidin-1-yl)carbonyl]-5,6,7,8-tetrahydro[1,2,4]triazolo[4,3-a]pyridin-3(2H)-one] has a pIC50 of 8.73. In the case of O=C(C1CC(C(F)(F)F)Cc2nn(Cc3ccc(Cl)cn3)c(=O)n21)N1CC[C@H](F)C1 (mixture of isomers) [Example 314, (5RS,7RS)-2-[(5-Chloropyridin-2-yl)methyl]-5-{[(3S)-3-fluoropyrrolidin-1-yl]carbonyl}-7-(trifluoromethyl)-5,6,7,8-tetrahydro[1,2,4]triazolo[4,3-a]pyridin-3(2H)-one], the pIC50 was 8.85. Cc1ccc(Cn2nc3n(c2=O)C(C(=O)N2CCC(C)CC2)CCC3)cc1 (racemic) [Example 160, (5RS)-2-(4-Methylbenzyl)-5-[(4-methylpiperidin-1-yl)carbonyl]-5,6,7,8-tetrahydro[1,2,4]triazolo[4,3-a]pyridin-3(2H)-one] gave a pIC50 of 7.49.

Test system: PGP
Assay: not given
Conditions: COPD patients treated; cited from earlier work
In the case of O=C(Nc1c(Cl)cncc1Cl)c1ccc(OC(F)F)c(OCC2CC2)c1 [roflumilast], the “concentration of PGP in the sputum and serum” value is given as “decrease”.
